Measured values as given in patent US11453666B2, “Autotaxin inhibitory compounds” (Cancer Research Technology Limited, priority 2015, dated 2022).
Read-outs that look alike come from different tables or passages of the source.

Target: human recombinant ATX (Homo sapiens, UniProt Q13822)
Experiment: Autotaxin (ATX) activity Quanta Red assay
Format: biochemical
Method: The reaction was stopped after 2 hours with a 20 μL addition of Quanta Red Stop solution (1:20 dilution in distilled water). The above-described mixture with DMSO alone was used as a positive control whereas that with DMSO alone without ATX was taken as a negative control.
Fluorescence was determined in a BMG Labtech Pherastar plus plate reader ([…]). Data were analysed using Excel fit software. IC50 values were determined in duplicate.

[1] = read-out: Activity (ATX activity, Quanta Red assay; IC50)
[2] = human recombinant ATX 0.8 μg/mL, 2 hours at room temperature, IC50 determined in duplicate, read-out: Activity (ATX activity, Quanta Red assay; IC50)
[3] = Table 2: additional compounds tested for ATX activity (Quanta Red Assay), read-out: Activity

| SMILES | IC50 [1] [nM] | further results |
| --- | --- | --- |
| C[C@H](NC(=O)CCc1nc2cccnc2n1Cc1ccc(Br)cc1)c1ccc(Cl)cc1 [Example 21, 3-[3-(4-Bromo-benzyl)-3H-imidazo[4,5-b]pyridin-2-yl]-N-[(S)-1-(4-chloro-phenyl)-ethyl]-propionamide] | 5 | – |
| CCC[C@H](NC(=O)CCc1nc2cccnc2n1Cc1ccc(OC)cc1)c1ccccc1 [Example 99] | 48 | – |
| O=C(CCc1nc2cccnc2n1Cc1ccc(OC(F)(F)F)cc1)N[C@H]1CCCc2ccccc21 [Example 38, N-(S)-1,2,3,4-Tetrahydro-naphthalen-1-yl-3-[3-(4-trifluoromethoxy-benzyl)-3H-imidazo[4,5-b]pyridin-2-yl]-propionamide] | 9 | – |
| O=C(COc1nc2cccnc2n1Cc1ccc(OC(F)(F)F)cc1)N[C@@H](CO)c1ccccc1 [Example 151, N-((R)-2-Hydroxy-1-phenyl-ethyl)-2-[3-(4-trifluoromethoxy-benzyl)-3H-imidazo[4,5-b]pyridin-2-yloxy]-acetamide] | 3 | – |
| C[C@H](NC(=O)COc1nc2cccnc2n1Cc1ccc(F)cc1)c1ccc(F)cc1 [Example 153, 2-[3-(4-fluoro-benzyl)-3H-imidazo[4,5-b]pyridin-2-yloxy]-N—[(S)-1-(4-fluoro-phenyl)-ethyl]-acetamide] | – | IC50 [2]: 39 nM |
| C[C@H](NC(=O)CCc1nc2cccnc2n1Cc1ccc(F)c(F)c1)c1ccccn1 [Example 72, 3-[3-(3,4-Difluoro-benzyl)-3H-imidazo[4,5-b]pyridin-2-yl]-N-((S)-1-pyridin-2-yl-ethyl)-propionamide] | 247 | – |
| O=C(CCc1nc2cccnc2n1Cc1ccc(F)c(F)c1)NCc1ccc(OC(F)(F)F)cc1 [Example 57, 3-[3-(3,4-Difluoro-benzyl)-3H-imidazo[4,5-b]pyridin-2-yl]-N-(4-trifluoromethoxy-benzyl)-propionamide] | 58 | – |
| O=C(CCc1nc2cccnc2n1Cc1ccc(OC(F)(F)F)cc1)Nc1ncco1 [Example 78, N-Oxazol-2-yl-3-[3-(4-trifluoromethoxy-benzyl)-3H-imidazo[4,5-b]pyridin-2-yl]-propionamide] | 800 | – |
| COc1ccc(Cn2c(CCC(=O)NCCc3ccc(SC)cc3)nc3cccnc32)cc1 [Example 221, 3-[3-(4-Methoxy-benzyl)-3H-imidazo[4,5-b]pyridin-2-yl]-N-[2-(4-methylsulfanyl-phenyl)-ethyl]-propionamide] | – | IC50 [3]: 154 nM |
| C[C@H](NC(=O)CCc1nc2ccncc2n1Cc1ccc(F)cc1)c1ccccc1 [Example 130, 3-[3-(4-Fluoro-benzyl)-3H-imidazo[4,5-c]pyridin-2-yl]-N-((S)-1-phenyl-ethyl)-propionamide] | 21 | – |
| C[C@H](NC(=O)CCc1nc2cccnc2n1Cc1ccc(OC(F)(F)F)cc1)C1CC1 [Example 60, N-((S)-1-Cyclopropyl-ethyl)-3-[3-(4-trifluoromethoxy-benzyl)-3H-imidazo[4,5-b]pyridin-2-yl]-propionamide] | 89 | – |
| CN(C)CCOc1ccc(CNC(=O)CCc2nc3cccnc3n2Cc2ccc(OC(F)(F)F)cc2)cc1 [Example 19, N-[4-(2-Dimethylamino-ethoxy)-benzyl]-3-[3-(4-trifluoromethoxy-benzyl)-3H-imidazo[4,5-b]pyridin-2-yl]-propionamide] | 4 | – |
| O=C(CCc1nc2cccnc2n1Cc1ccc(F)cc1)NC(CO)c1ccc(OC(F)(F)F)cc1 (stereo not shown) [Example 33, 3-[3-(4-Fluoro-benzyl)-3H-imidazo[4,5-b]pyridin-2-yl]-N-[2-hydroxy-1-(4-trifluoromethoxy-phenyl)-ethyl]-propionamide] | 6 | – |
| COc1ccc(CNC(=O)CCc2nc3cccnc3n2Cc2ccc(C)cc2)cc1 [Example 103, N-(4-Methoxy-benzyl)-3-[3-(4-methyl-benzyl)-3H-imidazo[4,5-b]pyridin-2-yl]-propionamide] | 57 | – |
| Cc1cnc2c(c1)nc(CCC(=O)N[C@@H](C)c1ccc(Cl)cc1)n2Cc1ccc(F)cc1 [Example 213, N-[(S)-1-(4-Chloro-phenyl)-ethyl]-3-[3-(4-fluoro-benzyl)-6-methyl-3H-imidazo[4,5-b]pyridin-2-yl]-propionamide] | 17 | – |
| O=C(CCc1nc2cccnc2n1Cc1ccc(OC(F)(F)F)cc1)NC[C@@H](O)c1ccccc1 [Example 36, N-((S)-2-Hydroxy-2-phenyl-ethyl)-3-[3-(4-trifluoromethoxy-benzyl)-3H-imidazo[4,5-b]pyridin-2-yl]-propionamide] | 7 | – |
| O=C(CCc1nc2cccnc2n1Cc1ccc(F)c(F)c1)NC(CCO)c1ccc(F)cc1 (stereo not shown) [Example 48, 3-[3-(3,4-Difluoro-benzyl)-3H-imidazo[4,5-b]pyridin-2-yl]-N-[1-(4-fluoro-phenyl)-3-hydroxy-propyl]-propionamide] | 19 | – |

| SMILES | IC50 [1] [nM] | further results |
| --- | --- | --- |
| COc1ccc(Cn2c(CCC(=O)NCc3ccc(F)cc3)nc3cccnc32)cc1 [Example 219, N-(4-Fluoro-benzyl)-3-[3-(4-methoxy-benzyl)-3H-imidazo[4,5-b]pyridin-2-yl]-propionamide] | – | IC50 [3]: 89 nM |
| O=C(CCc1nc2cccnc2n1Cc1cccs1)NCc1ccccc1 [Example 226, N-Benzyl-3-(3-thiophen-2-ylmethyl-3H-imidazo[4,5-b]pyridin-2-yl)-propionamide] | – | IC50 [3]: 807 nM |
| O=C(CCc1nc2cccnc2n1Cc1ccc(OC(F)(F)F)cc1)N[C@@H](Cc1ccc(O)cc1)C(=O)O [Example 200, (S)-3-(4-Hydroxy-phenyl)-2-{3-[3-(4-trifluoromethoxy-benzyl)-3H-imidazo[4,5-b]pyridin-2-yl]-propionylamino}-propionic acid] | 471 | – |
| COc1cc(OC(F)(F)F)ccc1CNC(=O)CCc1nc2cccnc2n1Cc1ccc(F)c(F)c1 [Example 74, 3-[3-(3,4-Difluoro-benzyl)-3H-imidazo[4,5-b]pyridin-2-yl]-N-(2-methoxy-4-trifluoromethoxy-benzyl)-propionamide] | 339 | – |
| CC(C)(NC(=O)CCc1nc2ccncc2n1Cc1ccc(F)cc1)c1ccccc1 [Example 136, 3-[3-(4-Fluoro-benzyl)-3H-imidazo[4,5-c]pyridin-2-yl]-N-(1-methyl-1-phenyl-ethyl)-propionamide] | 115 | – |
| COc1ccc(Cn2c(CCC(=O)N[C@@H](C)c3ccccc3)nc3cccnc32)cc1 [Example 92, 3-[3-(4-Methoxy-benzyl)-3H-imidazo[4,5-b]pyridin-2-yl]-N-((S)-1-phenyl-ethyl)-propionamide] | 17 | – |
| COc1ccc(Cn2c(CCC(=O)NCc3ccc(F)c(F)c3)nc3cccnc32)cc1 [Example 107, N-(3,4-Difluoro-benzyl)-3-[3-(4-methoxy-benzyl)-3H-imidazo[4,5-b]pyridin-2-yl]-propionamide] | 102 | – |
| C[C@H](NC(=O)CCc1cc2cccnc2n1Cc1ccc(OC(F)(F)F)cc1)c1ccc(F)cc1 [Example 137, N—[(S)-1-(4-fluoro-phenyl)-ethyl]-3-[1-(4-trifluoromethoxy-benzyl)-1H-pyrrolo[2,3-b]pyridin-2-yl]-propionamide] | 10 | – |
| COc1ccc(Cn2c(CCC(=O)N[C@@H](C)c3ccc(Cl)cc3)nc3cccnc32)cc1F [Example 24, N-[(S)-1-(4-Chloro-phenyl)-ethyl]-3-[3-(3-fluoro-4-methoxy-benzyl)-3H-imidazo[4,5-b]pyridin-2-yl]-propionamide] | 4 | – |
| C[C@H](NC(=O)CCc1nc2cccnc2n1Cc1ccc(OCc2ccccc2)cc1)c1ccc(F)cc1 [Example 80, 3-[3-(4-Benzyloxy-benzyl)-3H-imidazo[4,5-b]pyridin-2-yl]-N-[(S)-1-(4-fluoro-phenyl)-ethyl]-propionamide] | 844 | – |
| Cc1cnc2c(c1)nc(CCC(=O)N[C@@H](C)c1ccc(Cl)cc1)n2Cc1ccc(OC(F)(F)F)cc1 [Example 211, N—[(S)-1-(4-chloro-phenyl)-ethyl]-3-[6-methyl-3-(4-trifluoromethoxy-benzyl)-3H-imidazo[4,5-b]pyridin-2-yl]-propionamide] | 7 | – |
| CC(C)(C)OC(=O)N1CCC(CNC(=O)CCc2nc3ccncc3n2Cc2ccc(OC(F)(F)F)cc2)CC1 [Example 135, 4-({3-[3-(4-Trifluoromethoxy-benzyl)-3H-imidazo[4,5-c]pyridin-2-yl]-propionylamino}-methyl)-piperidine-1-carboxylic acid tert-butyl ester] | 1570 | – |
| C[C@H](NC(=O)CCc1nc2cccnc2n1Cc1ccc(C(F)(F)F)cc1)c1ccc(Cl)cc1 [Example 12, N-[(S)-1-(4-Chloro-phenyl)-ethyl]-3-[3-(4-trifluoromethyl-benzyl)-3H-imidazo[4,5-b]pyridin-2-yl]-propionamide] | – | IC50 [2]: 2 nM |
| COc1cccc([C@H](C)NC(=O)NCc2nc3cccnc3n2Cc2ccc(F)cc2)c1 [Example 165, 1-[3-(4-Fluoro-benzyl)-3H-imidazo[4,5-b]pyridin-2-ylmethyl]-3-[(S)-1-(3-methoxy-phenyl)-ethyl]-urea] | 514 | – |
| O=C(CCc1nc2cccnc2n1Cc1ccc(OC(F)(F)F)cc1)NC(CO)c1ccc(F)cc1 (stereo not shown) [Example 15, N-[1-(4-Fluoro-phenyl)-2-hydroxy-ethyl]-3-[3-(4-trifluoromethoxy-benzyl)-3H-imidazo[4,5-b]pyridin-2-yl]-propionamide] | 2 | – |
| CCN(CC)Cc1ccc([C@H](C)NC(=O)CCc2nc3cccnc3n2Cc2ccc(F)c(F)c2)cc1 [Example 207, N-[(S)-1-(4-Diethylaminomethyl-phenyl)-ethyl]-3-[3-(3,4-difluoro-benzyl)-3H-imidazo[4,5-b]pyridin-2-yl]-propionamide] | 25 | – |
| C[C@H](NC(=O)CCc1nc2cccnc2n1Cc1ccc(OC(F)(F)F)cc1)c1ccc(N2CCCNCC2)cc1 [Example 170, N-[(S)-1-(4-[1,4]Diazepan-1-yl-phenyl)-ethyl]-3-[3-(4-trifluoromethoxy-benzyl)-3H-imidazo[4,5-b]pyridin-2-yl]-propionamide] | 2 | – |
